Where a name gives a salt, the structure may show the parent alone.
Tests used:
[1] = target: T1, HCN2 (Homo sapiens, UniProt Q9UL51); assay: HCN2 assay using PatchXpress 7000A (PX protocol, Example 25); assay type: cell-based; conditions: room temperature
T1 sequence (Q9UL51 1-889): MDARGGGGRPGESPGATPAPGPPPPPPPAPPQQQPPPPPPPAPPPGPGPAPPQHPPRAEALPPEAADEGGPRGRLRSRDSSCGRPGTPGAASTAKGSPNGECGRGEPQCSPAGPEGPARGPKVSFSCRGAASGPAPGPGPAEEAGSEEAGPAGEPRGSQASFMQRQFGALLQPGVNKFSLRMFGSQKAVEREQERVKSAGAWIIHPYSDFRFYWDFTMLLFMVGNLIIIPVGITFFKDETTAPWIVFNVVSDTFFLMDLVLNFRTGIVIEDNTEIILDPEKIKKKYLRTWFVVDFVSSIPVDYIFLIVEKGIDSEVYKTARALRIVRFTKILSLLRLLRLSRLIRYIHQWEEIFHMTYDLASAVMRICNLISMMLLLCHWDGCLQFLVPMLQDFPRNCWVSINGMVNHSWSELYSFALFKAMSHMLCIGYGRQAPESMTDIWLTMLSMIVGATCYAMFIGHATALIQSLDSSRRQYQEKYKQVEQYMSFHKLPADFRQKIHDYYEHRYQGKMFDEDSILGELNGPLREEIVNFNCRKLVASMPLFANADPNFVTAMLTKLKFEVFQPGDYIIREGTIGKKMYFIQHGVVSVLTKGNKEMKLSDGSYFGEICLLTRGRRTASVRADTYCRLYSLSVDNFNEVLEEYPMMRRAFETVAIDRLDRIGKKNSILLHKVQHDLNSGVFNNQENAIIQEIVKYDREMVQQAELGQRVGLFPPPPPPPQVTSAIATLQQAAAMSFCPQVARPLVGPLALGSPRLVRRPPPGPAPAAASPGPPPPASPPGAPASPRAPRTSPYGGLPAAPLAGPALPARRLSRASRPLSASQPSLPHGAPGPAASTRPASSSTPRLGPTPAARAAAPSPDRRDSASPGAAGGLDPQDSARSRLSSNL
Procedure: (§1) Example 25: Assay for HCN1 HCN2 and HCN4 Using PatchXpress 7000A
(§2) Solutions for recording HCN currents were:
The membrane voltage was then stepped back to −30 mV for a further 8 seconds.
(§3) The peak inward current measured at the end of the pulse to −110 mV (HCN1 and HCN2) or −130 mV (HCN4) was measured and any leak current subtracted to calculate the HCN current. The HCN current amplitude was measured after each control or compound addition and normalized to the control amplitude (Control A).
(§4) All experiments were performed at room temperature (approximately 22° C.).
(§5) Each test compound concentration was applied to the cell for seven (7) minutes, at which point the next cumulative concentration was applied.

[2] = target: T2, HCN4 (Homo sapiens, UniProt Q9Y3Q4); assay: HCN4 assay using PatchXpress 7000A (PX protocol, Example 25); assay type: cell-based; conditions: room temperature
T2 sequence (Q9Y3Q4 1-1203): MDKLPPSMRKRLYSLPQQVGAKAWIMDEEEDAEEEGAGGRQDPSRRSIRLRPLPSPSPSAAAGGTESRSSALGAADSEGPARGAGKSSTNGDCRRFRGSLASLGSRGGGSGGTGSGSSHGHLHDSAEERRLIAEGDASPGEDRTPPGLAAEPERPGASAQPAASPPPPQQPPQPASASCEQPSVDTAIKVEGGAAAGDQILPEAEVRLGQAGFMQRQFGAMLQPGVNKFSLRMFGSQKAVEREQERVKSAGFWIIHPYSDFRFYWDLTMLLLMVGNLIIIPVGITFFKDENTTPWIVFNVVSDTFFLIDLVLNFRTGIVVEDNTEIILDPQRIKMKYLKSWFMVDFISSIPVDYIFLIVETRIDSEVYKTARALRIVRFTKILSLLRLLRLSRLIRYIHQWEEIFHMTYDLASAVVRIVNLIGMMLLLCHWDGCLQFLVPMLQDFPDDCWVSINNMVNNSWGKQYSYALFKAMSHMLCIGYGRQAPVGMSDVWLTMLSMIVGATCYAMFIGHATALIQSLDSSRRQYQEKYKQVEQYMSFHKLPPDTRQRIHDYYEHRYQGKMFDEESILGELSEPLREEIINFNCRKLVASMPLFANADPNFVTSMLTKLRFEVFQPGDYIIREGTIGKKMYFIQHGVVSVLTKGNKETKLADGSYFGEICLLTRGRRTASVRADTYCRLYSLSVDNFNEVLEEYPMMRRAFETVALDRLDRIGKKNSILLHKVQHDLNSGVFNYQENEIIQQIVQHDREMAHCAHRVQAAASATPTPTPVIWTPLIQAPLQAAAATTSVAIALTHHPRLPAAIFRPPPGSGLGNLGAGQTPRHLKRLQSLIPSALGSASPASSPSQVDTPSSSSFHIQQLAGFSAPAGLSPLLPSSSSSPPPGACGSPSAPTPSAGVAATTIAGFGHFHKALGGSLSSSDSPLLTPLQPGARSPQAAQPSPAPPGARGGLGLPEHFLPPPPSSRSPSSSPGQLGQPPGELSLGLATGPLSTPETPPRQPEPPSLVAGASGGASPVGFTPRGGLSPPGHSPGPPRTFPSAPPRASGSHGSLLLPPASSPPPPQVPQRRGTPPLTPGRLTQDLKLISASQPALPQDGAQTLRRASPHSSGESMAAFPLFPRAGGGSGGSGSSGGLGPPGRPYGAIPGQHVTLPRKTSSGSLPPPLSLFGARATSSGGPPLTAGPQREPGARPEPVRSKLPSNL
Procedure: as §1, §2, §3, §4, §5

Question: Which IC50 [1] does the source give for `CC(c1ccccn1)[C@H](N)c1ncccc1-c1noc2ccccc12` (single isomer, unassigned) [Example 12, hydrochloride] here?
Answer: Its IC50 is 4.5 µM.

Question: Which IC50 [1] does the source give for `CC(c1ccccn1)[C@H](N)c1ncccc1-c1noc2ccccc12` (single isomer, unassigned) [Example 13, hydrochloride] here?
Answer: The IC50 was 9.6 µM.

Question: Which IC50 [1] does the source give for `Cn1nc(-c2ccccc2[C@@H](N)Cc2ccccn2)c2cccnc21` [Example 1, (S)-1-[2-(1-Methyl-1H-pyrazolo[3,4-b]pyridine-3-yl)phenyl]-2-(pyridin-2-yl)ethan-1-amine hydrochloride] here?
Answer: Its IC50 is 16.8 µM.

Question: Which IC50 [1] does the source give for `N[C@@H](Cc1ccccn1)c1ccccc1-c1noc2ncccc12` [Example 2, (S)-1-[2-(Isoxazolo[5,4-b]pyridine-3-yl)phenyl]-2-(pyridin-2-yl)ethan-1-amine] here?
Answer: The IC50 was 10.2 µM.

Question: With `Cn1nc(-c2cccnc2[C@@H](N)Cc2ccccn2)c2ccccc21` [Example 3, (S)-1-[3-(1-Methyl-1H-indazol-3-yl)pyridine-2-yl]-2-(pyridin-2-yl)ethan-1-amine hydrochloride] as the compound, how does the IC50 [1] read?
Answer: The IC50 was 5.7 µM.

Question: And the IC50 [2]?
Answer: The IC50 was > 30 µM.

Question: `N[C@@H](Cc1ccccn1)c1cccnc1-c1noc2ccccc12` [Example 5, (S)-1-[2-(Benzoy[d]isoxazol-3-yl)pyridine-3-yl}-2-(pyridine-2-yl)ethan-1-amine hydrochloride] was tested. Which IC50 [1] did it give?
Answer: The IC50 was 19 µM.

Question: Which IC50 [1] does the source give for `N[C@@H](Cc1ccccn1)c1ncccc1-c1noc2ccccc12` [Example 6, (S)-1-[3-(Benzoy[d]isoxazol-3-yl)pyridine-2-yl}-2-(pyridine-2-yl)ethan-1-amine hydrochloride] here?
Answer: The IC50 was 2.2 µM.

Question: What about the IC50 [2] of the same compound?
Answer: The IC50 was > 30 µM.

Question: Which IC50 [1] does the source give for `N[C@@H](Cc1ccccn1)c1ccncc1-c1noc2ccccc12` [Example 7, (S)-1-[3-(Benzoy[d]isoxazol-3-yl)pyridine-4-yl}-2-(pyridine-2-yl)ethan-1-amine hydrochloride] here?
Answer: The IC50 was 13.8 µM.

Question: How did the IC50 [1] turn out when `Cn1nc(-c2ccccc2[C@@H](N)Cc2ccccn2)c2ccncc21` [Example 8, (S)-1-[2-(1-Methyl-1H-pyrazolo[3,4-c]pyridine-3-yl)phenyl]-2-(pyridine-2-yl)ethan-1-amine hydrochloride] was run?
Answer: The IC50 was 7.9 µM.

Question: And the IC50 [2]?
Answer: The IC50 was > 30 µM.

Question: Which IC50 [1] does the source give for `Cc1ccc(-c2noc3ccccc23)c([C@@H](N)Cc2ccccn2)n1` [Example 9, (S)-1-[3-(Benzoy[d]isoxazol-3-yl)-6-methylpyridine-2-yl]-2-(pyridine-2-yl)ethan-1-amine hydrochloride] here?
Answer: The IC50 was 3.2 µM.

Question: What about the IC50 [2] of the same compound?
Answer: Its IC50 is > 30 µM.

Question: Which IC50 [1] does the source give for `N#Cc1cccc(C[C@H](N)c2ncccc2-c2noc3ccccc23)n1` [Example 10, (S)-6-{2-Amino-2-[3-(benzoy[d]isoxazol-3-yl)pyridine-2-yl]ethyl}pyridine-2-carbonitrile hydrochloride] here?
Answer: The IC50 was 1.9 µM.

Question: What about the IC50 [2] of the same compound?
Answer: The IC50 was 16.7 µM.

Question: For `Cc1cccc(C[C@H](N)c2ncccc2-c2noc3ccccc23)n1` [Example 11, (S)-1-[3-(Benzoy[d]isoxazol-3-yl)pyridine-2-yl]-2-(6-methylpyridine-2-yl)ethan-1-amine hydrochloride], which IC50 [1] is on record?
Answer: The IC50 was 5.1 µM.

Question: What about the IC50 [2] of the same compound?
Answer: The IC50 was 22.9 µM.

Question: For `N[C@@H](Cc1ccccn1)c1ccccc1-c1noc2cnccc12` [Example 14, (S)-1-[2-(Isoxazolo[5,4-c]pyridine-3-yl)phenyl]-2-(pyridin-2-yl)ethan-1-amine], which IC50 [1] is on record?
Answer: Its IC50 is 12.3 µM.

Question: Which results are given for `Cc1cccc(C[C@H](N)c2ccccc2-c2nn(C)c3cnccc23)n1` [Example 15, (S)-1-[2-(1-Methyl-1H-pyrazolo[3,4-c]pyridine-3-yl)phenyl]-2-(6-methylpyridine-2-yl)ethan-1-amine hydrochloride]?
Answer: IC50 [1]: 7.7 µM; IC50 [2]: > 30 µM

Question: What does the source list for `Cn1nc(-c2ccccc2[C@@H](N)Cc2cccc(C#N)n2)c2ccncc21` [Example 16, (S)-6-{2-Amino-2-[2-(1-methyl-1H-pyrazolo[3,4-c]pyridine-3-yl)phenyl]ethyl}pyridine-2-carbonitrile]?
Answer: IC50 [1]: 6.8 µM; IC50 [2]: > 30 µM

Question: Which IC50 [1] does the source give for `NC(=O)c1cccc(C[C@H](N)c2ncccc2-c2noc3ccccc23)n1` [Example 17, (S)-6-{2-Amino-2-[3-(benzoy[d]isoxazol-3-yl)pyridine-2-yl]ethyl}pyridine-2-carboxamide] here?
Answer: The IC50 was 6.4 µM.

Question: What about the IC50 [2] of the same compound?
Answer: Its IC50 is > 30 µM.

Question: `CN(C)C(=O)c1cccc(C[C@H](N)c2ncccc2-c2noc3ccccc23)n1` [Example 18, (S)-6-{2-Amino-2-[3-(benzoy[d]isoxazol-3-yl)pyridine-2-yl]ethyl}-N,N-dimethylpyridine-2-carboxamide] was tested. Which IC50 [1] did it give?
Answer: The IC50 was 11.2 µM.

Question: What about the IC50 [2] of the same compound?
Answer: The IC50 was > 30 µM.

Question: What does the source list for `N[C@@H](Cc1cccc(OCCO)n1)c1ncccc1-c1noc2ccccc12` [Example 19, (S)-2-[(6-{2-Amino-2-[3-(benzoy[d]isoxazol-3-yl)pyridine-2-yl]ethyl}pyridine-2-yl)oxy]ethano-1-ol]?
Answer: IC50 [1]: 4 µM; IC50 [2]: > 30 µM

Question: For `N[C@@H](Cc1ncccn1)c1ncccc1-c1noc2ccccc12` [Example 20, (S)-1-[3-(Benzo[d]isoxazol-3-yl)pyridine-2-yl]-2-(pyrimidin-2-yl)ethan-1-amine], which IC50 [1] is on record?
Answer: Its IC50 is 9 µM.

Question: What about the IC50 [2] of the same compound?
Answer: Its IC50 is > 30 µM.

Question: With `CN(C)C(=O)CCc1cccc(C[C@H](N)c2ncccc2-c2noc3ccccc23)n1` [Example 21, (S)-3-(6-{2-Amino-2-[3-(benzo[d]isoxazol-3-yl)pyridine-2-ylethyl}priding-2-yl)-N,N-dimethylpropanamide hydrochloride] as the compound, how does the IC50 [1] read?
Answer: The IC50 was 8.9 µM.

Question: What about the IC50 [2] of the same compound?
Answer: The IC50 was > 30 µM.

Question: With `Cc1ccc(Br)nc1C[C@H](N)c1ncccc1-c1noc2ccccc12` [Example 22, (S)-1-[3-(Benzo[d]isoxazol-3-yl)pyridine-2-yl]-2-(6-bromo-3-methylpyridine-2-yl)ethan-1-amine hydrochloride] as the compound, how does the IC50 [1] read?
Answer: Its IC50 is 1.6 µM.

Question: And the IC50 [2]?
Answer: The IC50 was 10.3 µM.

Question: For `N[C@@H](Cc1ncccc1F)c1ncccc1-c1noc2ccccc12` [Example 23, (S)-1-[3-(Benzo[d]isoxazol-3-yl)pyridine-2-yl]-2-(3-fluoropyridine-2-yl)ethan-1-amine hydrochloride], which IC50 [1] is on record?
Answer: Its IC50 is 1.7 µM.

Question: What about the IC50 [2] of the same compound?
Answer: The IC50 was 9.5 µM.

Question: Which IC50 [1] does the source give for `Cc1ccc(F)c(C[C@H](N)c2ncccc2-c2noc3ccccc23)n1` [Example 24, (S)-1-[3-(Benzo[d]isoxazol-3-yl)pyridine-2-yl]-2-(3-fluoro-6-methylpyridine-2-yl)ethan-1-amine hydrochloride] here?
Answer: Its IC50 is 4.2 µM.

Source: US20240174663A1, “PYRIMIDINE OR PYRIDINE DERIVATIVES USEFUL AS HCN2 MODULATORS” (King's College London, priority 2021, published 2024)
